“Also recorded” adds a separate entry of the source. Read-outs that look alike come from different tables or passages of the source.
Assays:
[1] = biological target: T1, PPAR γ (Mus musculus, UniProt P37238); experiment: Dual-luciferase reporter gene assay, PPAR γ transcriptional activity in 293T cells; type: cell-based; conditions: for transcription activity on PPAR γ relative to compound A: 293T reporter assay
T1 construct: pCMX-Gal-mPPAR γ LBD plasmids; expressed in transfected cells; host or cells: 293T cells (ATCC)
T1 sequence (P37238 238-503 limits assumed): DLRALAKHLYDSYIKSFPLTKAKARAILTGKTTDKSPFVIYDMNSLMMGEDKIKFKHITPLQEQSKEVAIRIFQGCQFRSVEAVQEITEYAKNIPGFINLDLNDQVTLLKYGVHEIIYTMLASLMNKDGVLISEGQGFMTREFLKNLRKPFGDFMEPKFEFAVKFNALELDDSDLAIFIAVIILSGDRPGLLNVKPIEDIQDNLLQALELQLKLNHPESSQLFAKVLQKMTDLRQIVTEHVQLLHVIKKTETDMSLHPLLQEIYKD
Protocol: Reporter gene assay was used to detect the impacts of the compounds A, B and C on the transcriptional activities of PPAR γ and PPAR α. The inventors used the PPAR-α, α-LBD, γ and γ-LBD plasmids to detect the impacts of bavachinin on transcription activities of these two PPAR subtype. All the transfections were added to 293T cells (ATCC) overnight and then removed. The positive agonists or the test compounds were diluted in fresh media, and then added into the cells. After incubating for another 24 hours, the cells were harvested to detect luciferase activity.
293T cells were cultured in Dulbecco's modified Eagle's medium (DMEM) with 10% fetal bovine serum and 1% Penicillin/Streptomycin anti-DMEM high glucose medium at 37° C. and 5% CO2. 293T cells in log phase were seeded into 48-well plate with the cell density of 1×10^5˜2×10^5 cells/mL.
(§1) pCMX-Gal-mPPAR γ LBD plasmids, Gal4 reporter vector MH100×4-TK-Luc recombinant plasmids and renilla luciferase internal reference plasmids; PPAR α-LBD plasmids; PPAR γ plasmids; PPAR α plasmids.
When the cells grew to a density of 50 to 80% after seeded in plate overnight, it's good to carry out the transfection. All the transfections, which included 10 μg of total plasmids and 15 μL FuGENE-HD transfection reagent per mL of DMEM, were placed at room temperature for 15 minutes and then added to 293T cells (ATCC) overnight and then removed.
After incubating overnight, the compound A or B or C or positive PPAR γ/α agonists rosiglitazone (as the specific agonistic ligand of PPAR γ) or WY14643 (as the specific agonistic ligand of PPAR α) with different concentrations diluted by complete medium (2, 5, 10, 25, 50 μmol/L) were added into cells. The final concentration of positive agonists was 20 μmol/L).
(§2) After 24 hours, cells were washed twice with PBS to remove the remaining cell culture medium; 65 μL lysis buffer was added into each well and oscillated by the shaker for 15 minutes until cell lysis was complete. Finally the cell lysate was transferred into a 1.5 mL centrifuge tube; The cell lysate was centrifuged at 5000 rpm for 5 minutes and then 10 μL supernatant was taken to a new centrifuge tube for testing.
(§3) We conducted the luciferase reporter assay using Dual-Luciferase Reporter Assay System (Promega, USA). The transfection efficiency was normalized using the internal reference renilla luciferase activity. All transfection experiments were independently repeated for at least three times, with each experimental group having at least two deputy holes.
(§4) The Bio-Tek, Synergy HT multifunctional microplate reader was used to detect the fluorescence intensity of firefly and renilla. After normalizing via the internal reference renilla luciferase activity, the relative luciferase activity was expressed by the ratio of the fluorescence intensity of firefly luciferase and renilla luciferase.
(§5) Data were expressed as mean±standard error of mean (SEM). One-way ANOVA was used to analyze statistically differences between groups with LSD test for multiple comparisons using SPSS 16.0. The EC50 values were calculated using GraphPad Prism 5.0. A P value≤0.05 was regarded as statistically significant different.

[2] = biological target: T2, PPAR α (Homo sapiens, UniProt Q07869); experiment: Dual-luciferase reporter gene assay, PPAR α transcriptional activity in 293T cells; type: cell-based; conditions: for EC50: 293T cells, luciferase reporter, 24 hours incubation; for transcription activity on PPAR α relative to compound A: 293T reporter assay
T2 construct: PPAR α-LBD plasmids; expressed in transfected cells; host or cells: 293T cells (ATCC)
T2 sequence (Q07869 239-466 limits assumed): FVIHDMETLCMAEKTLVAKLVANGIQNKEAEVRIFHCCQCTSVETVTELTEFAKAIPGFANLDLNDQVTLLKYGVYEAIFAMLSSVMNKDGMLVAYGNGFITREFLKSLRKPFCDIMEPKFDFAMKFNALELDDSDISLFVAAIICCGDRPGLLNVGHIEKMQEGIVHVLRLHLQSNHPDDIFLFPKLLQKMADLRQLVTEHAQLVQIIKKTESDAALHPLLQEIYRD
Protocol: The inventors used the PPAR-α, α-LBD, γ and γ-LBD plasmids to detect the impacts of bavachinin on transcription activities of these two PPAR subtype. […] The positive agonists or the test compounds were diluted in fresh media, and then added into the cells. After incubating for another 24 hours, the cells were harvested to detect luciferase activity.
as §1
When the cells grew to a density of 50 to 80% after seeded in plate overnight, it's good to carry out the transfection.
The final concentration of positive agonists was 20 μmol/L).
as §2, §3, §4, §5

[3] = system: PPAR α/γ target genes in HepG2 cells; experiment: Real-time PCR of PPAR α/γ target genes in HepG2 cells; type: cell-based; conditions: 24 hours, 25 μM (stated for compound A); for expression of PPAR α/γ target genes (GLUT4, CD36, LPL, Fasn, ACO): β-actin reference
Protocol: Used Real-time fluorescence quantitative PCR (Real-time PCR) to detect how the compounds A, B and C regulate the expression of PPAR γ/α-related target genes in liver HepG2 cells.
HepG2 cells was grown in Dulbecco's modified Eagle's medium (DMEM, HyClone) with 10% fetal bovine serum (FBS, HyClone) and 1% Penicillin/Streptomycin (Gibco) at 37° C. and 5% CO2. HepG2 cells at logarithmic growth phase were plated in 12-well plates with the cell density was 5×10^4 cells/mL, and then were treated by compound A for 24 hours. Quantitative PCR analysis was performed using β-actin as an endogenous reference.
When the density of HepG2 cells was grown about 60%, compound A (dissolved in DMSO as a stock solution) diluted with complete medium was added into cells. The final concentration was 25 μM (μmol/L).
After 24 hours, total RNA of treated HepG2 cells was isolated using TRIzol reagent (Takara, Japan) according to the manual.
The total RNA was reversely transcribed to cDNA applying the reverse transcription kit (Thermo, Mass., USA). We established 20 μL reverse transcription reaction system according to Table 2. The reaction system was mixed and placed at room temperature (25° C.) for 5 minutes, incubated at 42° C. for 1 hour, incubated at 70° C. for 5 minutes. cDNA was stored at −20° C.
All primers were designed by the Prime 3.0 software. Briefly, after an initial denaturation at 95° C. for 10 minutes, the cDNA was amplified by 40 cycles of PCR (95° C., 15 seconds; 60° C., 60 seconds). All experiments were repeated at least three times independently.

[4] = system: db/db mice; experiment: Blood glucose and glucose tolerance in db/db mice; type: in vivo; conditions: for reduction of fasting blood glucose compared with vehicle: after 6 days treatment, intragastric
Protocol: Mice were fasted 8 hours before subjected to a dose of 1 g glucose per kg body weight. Blood was taken from tail and measured at 0, 15, 30, 60 and 90 minutes. The data were expressed with means±SE, n=9 for each group.
The db/db mice with leptin receptor mutation begin to show the symptoms of obesity, hyperlipidemia, insulin resistance, hyperglycemia and others at 4 weeks. This is an ideal kind of mice model for obese diabetic mice.
The db/db mice were kept in polycarbonate cages under regulated temperature (22-23° C.) and controlled humidity (50%-60%) with 12-hour light/12-hour dark cycle. All the mice were allowed to adapt to the standard housing conditions. Mice and food were weighed regularly to investigate the changes in body weight and food intake.
During the experimental period, the eight-week old db/db mice were treated with water and a normal standard cylindrical diet. […] An intraperitoneal glucose tolerance test (IPGTT) was carried out after one week of treatment. Mice were fasted 8 hours before subjected to a dose of 1 g glucose per kg body weight. Blood was taken from tail at 0, 15, 30, 60, and 90 minutes. After 11 days of treatment, 0.75 U/kg body weight of insulin was injected intraperitoneally to perform intraperitoneal insulin tolerance test (IPITT). Blood was taken from tail at 0, 15, 30, 60, 90 and 120 minutes. After 20 days, all the db/db mice were anaesthetized by pentobarbital sodium after 8-hour fast. Blood and tissues were collected and stored at −80° C. for the further analysis.

[5] = system: 3T3-L1 cells; experiment: 3T3-L1 preadipocyte differentiation (oil red O staining); type: cell-based; conditions: for adipocyte differentiation activity relative to compound A: 25 μM vs compound A at 5 μM
Protocol: 3T3-L1 fibroblast cell line is widely used for adipocyte differentiation models. […] For adipocyte differentiation, 3T3-L1 cells were seeded into 12-well plate to full confluence for 2 days and then incubated with completed medium containing 10 μg/mL human insulin (Sigma-Aldrich), 1 μM dexamethasone (Sigma-Aldrich) and the test compounds at 37° C. and 7.5% CO2. After 2 days of induction, the medium was replaced with a maintenance medium (completed medium including 10 μg/mL insulin and the test compounds) for additional 2 days (Day 0-Day 2). Thereafter, the medium was refreshed with fresh medium with the test compounds for 4 days (Day 2-Day 6). The test compounds dissolved in dimethylsulfoxide (DMSO) was diluted by the completed medium (final DMSO concentration, 0.1%) at indicated concentration. rosiglitazone was used as a positive compound. The 3T3-L1 cells were washed with PBS twice, fixed with 10% formalin at room temperature for 10 minutes and then stained with oil red O (Sigma-Aldrich, St. Louis, Mo.) at 37° C. for 30 minutes. The pictures were taken using an Olympus microscope (Tokyo, Japan).

[6] = system: diet-induced obese (dio) C57BL/6J mice; experiment: Lipid disorders in diet-induced obese (dio) mice; conditions: for effect on food intake / reduction of serum triglyceride (TG) levels compared to HFD group / effect on body weight: 3-week treatment; for reduction of serum triglyceride (TG) levels compared to HFD group: compound A 2 g per kg HFD; for effect on body weight: vs HFD group
Protocol: For the therapy study, the six-week old female C57BL/6J mice were fed with high-fat diet (HFD, 60% of calories from fat) for 12 weeks to induce obesity and insulin resistance (DIO). The mice were divided into 3 groups according to body weight and fasting blood glucose (n=9, 7, 7, 7). […] After 21 days of dosing, we took blood from heart of anaesthetized fasted 10-hour mice. Tissues were collected and stored at −80° C.
Serum was used for all the analysis of blood parameters.

[7] = 100 mg/kg/d stated for compound A
[8] = 293T cells, luciferase reporter, 24 hours incubation, read-out: EC50 (μM) PPAR γ

SMILES: COc1cc2c(cc1CC=C(C)C)C(=O)C[C@@H](c1ccc(O)cc1)O2 [compound A, bavachinin]
- EC50 [1]: 8.6 µM
- PPAR γ transactivation compared with rosiglitazone (ROS) ([1]; compound at 25 μM vs rosiglitazone at 20 μM): nearly equal to PPAR γ agonist rosiglitazone (ROS) at 20 μM
- EC50 ([2]; EC50 (μM) PPAR α): 17.3 µM
- PPAR α transactivation compared with full agonist WY14643 ([2]; WY14643 final concentration 20 μmol/L): more transactivation
- expression of PPAR α/γ themselves [3]: did not effect
- expression of PPAR α/γ target genes (GLUT4, CD36, LPL, Fasn, ACO) [3]: significantly increased
- glucose tolerance (IPGTT) ([4]; 100 mg/kg/d, 1 g/kg glucose after 8 hours fast): improved
- reduction of fasting blood glucose compared with vehicle [4, 7]: about 20%
- 3T3-L1 adipocyte differentiation ([5]; 1 μM, with insulin and dexamethasone, 6 days, oil red O): induced 3T3-L1 cell differentiation and lipid droplets formation
- 3T3-L1 adipocyte differentiation ([5]; 10 μM, with insulin and dexamethasone, 6 days, oil red O): almost fully differentiated
- 3T3-L1 adipocyte differentiation ([5]; 25 μM, with insulin and dexamethasone (FIG. 5C)): induced to differentiate into adipocytes
- potency on adipocyte differentiation relative to rosiglitazone ([5]; 3T3-L1 cells): as potent as rosiglitazone
- effect on food intake [6]: without affecting; also recorded: did not affect
- reduction of serum triglyceride (TG) levels compared to HFD group [6]: around 23%
- effect on body weight [6]: without affecting; also recorded: did not increase
- serum TG levels in contrast to HFD group ([6]; FIG. 6D): significantly reduced

SMILES: CC(=O)Oc1ccc(C2CC(=O)c3cc(CC=C(C)C)c(OC(C)=O)cc3O2)cc1 (stereo not drawn) [compound B]
- EC50 [1, 8]: 18.8 µM
- transcription activity on PPAR γ relative to compound A [1]: less than that of compound A
- EC50 ([2]; read-out: EC50 (μM) PPAR α): 28.5 µM
- transcription activity on PPAR α relative to compound A [2]: less than that of compound A
- expression of PPAR α/γ themselves [3]: did not effect
- expression of PPAR α/γ target genes (GLUT4, CD36, LPL, Fasn, ACO) [3]: significantly increased
- reduction of fasting blood glucose compared with vehicle [4, 7]: about 10%
- adipocyte differentiation activity relative to compound A ([5]; 3T3-L1 cells): nearly equal to the activity of compound A at 5 μM
- effect on food intake [6]: without affecting
- reduction of serum triglyceride (TG) levels compared to HFD group [6]: 20%
- effect on body weight [6]: without affecting

SMILES: COc1cc2c(cc1CC=C(C)C)C(=O)CC(c1ccc(OC(C)=O)cc1)O2 (stereo not drawn) [compound C]
- EC50 [1, 8]: 12.3 µM
- transcription activity on PPAR γ relative to compound A [1]: less than that of compound A
- EC50 ([2]; read-out: EC50 (μM) PPAR α): 12.9 µM
- transcription activity on PPAR α relative to compound A [2]: less than that of compound A
- expression of PPAR α/γ themselves [3]: did not effect
- expression of PPAR α/γ target genes (GLUT4, CD36, LPL, Fasn, ACO) [3]: significantly increased
- reduction of fasting blood glucose compared with vehicle [4, 7]: ~8%
- adipocyte differentiation activity relative to compound A ([5]; 3T3-L1 cells): nearly equal to the activity of compound A at 5 μM
- effect on food intake [6]: without affecting
- reduction of serum triglyceride (TG) levels compared to HFD group [6]: 12%
- effect on body weight [6]: without affecting

SMILES: CN(CCOc1ccc(CC2SC(=O)NC2=O)cc1)c1ccccn1 (stereo not drawn) [rosiglitazone, reference compound]
- reduction of fasting blood glucose compared with vehicle ([4]; rosiglitazone 5 mg/kg/d): 5%
